The text below walks through data of patent US9051278B2, “3,4-disubstituted 1H-pyrazole compounds and their use as cyclin dependent kinase and glycogen synthase kinase-3 modulators” (Astex Therapeutics, Ltd., priority 2003, dated 2015).

Experiment [1] concerns human colon carcinoma cell line HCT 116. The experiment in a line: Anti-proliferative activity, Alamar Blue assay. It is filed as cell-based. The conditions noted are these: HCT 116, 72 hours, read-out: IC50 (inhibition of cell growth). As for the experimental part:
The anti-proliferative activities of compounds of the invention are determined by measuring the ability of the compounds to inhibition of cell growth in a number of cell lines Inhibition of cell growth is measured using the Alamar Blue assay (Nociari, M. M, Shalev, A., Benias, P., Russo, C. Journal of Immunological Methods 1998, 213, 157-167). The method is based on the ability of viable cells to reduce resazurin to its fluorescent product resorufin. For each proliferation assay cells are plated onto 96 well plates and allowed to recover for 16 hours prior to the addition of inhibitor compounds for a further 72 hours. At the end of the incubation period 10% (v/v) Alamar Blue is added and incubated for a further 6 hours prior to determination of fluorescent product at […]. In the case of the non-proliferating cell assay cells are maintained at confluence for 96 hour prior to the addition of inhibitor compounds for a further 72 hours. The number of viable cells is determined by Alamar Blue assay as before. All cell lines are obtained from ECACC (European Collection of cell Cultures).
(The colour change of resazurin is a common sign of viable cells or microbes.)

For experiment [2], the target named is T1, GSK3-β (Homo sapiens, UniProt P49841).
T1 construct: purchased Upstate Discovery
Briefly: Inhibitory activity against glycogen synthase kinase-3 (Protocol A or B). It is filed as biochemical. The conditions noted are these: either Protocol A or Protocol B; read-out: IC50 (GSK3-B assays). The method, then: The activities of the compounds of the invention as inhibitors of GSK-3 were determined using either Protocol A or Protocol B below.
The reaction is allowed to proceed for 3 hours before being stopped with an excess of ortho-phosphoric acid (5 μl at 2%). The filtration procedure is as for Activated CDK2/CyclinA assay above.
GSK3β (human) is diluted to a 10× working stock in 50 mM Tris pH 7.5, 0.1 mM EGTA, 0.1 mM sodium vanadate, 0.1% β-mercaptoethanol, 1 mg/ml BSA.

T1 sequence (P49841 whole entry): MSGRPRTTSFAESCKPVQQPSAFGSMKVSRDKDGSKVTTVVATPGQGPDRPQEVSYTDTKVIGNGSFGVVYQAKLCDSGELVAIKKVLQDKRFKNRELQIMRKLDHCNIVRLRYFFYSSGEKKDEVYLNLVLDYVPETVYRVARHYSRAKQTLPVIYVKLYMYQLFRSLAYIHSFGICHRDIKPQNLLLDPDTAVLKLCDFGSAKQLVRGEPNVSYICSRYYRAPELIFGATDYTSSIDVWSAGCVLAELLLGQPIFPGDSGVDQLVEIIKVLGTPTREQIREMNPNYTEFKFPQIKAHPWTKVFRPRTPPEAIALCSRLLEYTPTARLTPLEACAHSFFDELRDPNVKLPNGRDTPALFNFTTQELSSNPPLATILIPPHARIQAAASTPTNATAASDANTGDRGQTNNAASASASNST

For `COc1ccc(CNC(=O)c2n[nH]cc2NC(=O)c2c(F)cccc2F)cc1` [Example 62], the IC50 – broadly, the midpoint of a concentration-inhibition curve – in experiment [1] was under 20 µM. Same read-out and setting: the result for `CN1CCN(c2ccc(CNC(=O)c3n[nH]cc3NC(=O)c3c(F)cccc3F)cc2)CC1` [Example 64] reads under 20 µM; that for `O=C(NC1CCNCC1)c1n[nH]cc1NC(=O)c1c(Cl)cccc1Cl` [Example 150], under 20 µM. Consider `CC(C)(C)C1CCC(NC(=O)c2n[nH]cc2NC(=O)c2c(F)cccc2F)CC1` (centres unmarked) [Example 77], for which the figures for the IC50 in experiment [1] and in experiment [2] were under 20 µM and under 10 µM, respectively.
